Source: patent publication US8686178B2, “Derivative of 18β-glycyrrhetinic acid apt to suppress cancer cells” (Kaohsiung Medical University, priority 2011, dated 2014)

How the values were obtained:
[1] = tested on: human bladder cancer cell line NTUB1; assay: Trial (A): cytotoxic effect, IC50 by median-effect analysis; type: cell-based; conditions: NTUB1 cells
Source text: (§1) For the sake of proving therapeutic effects of the derivatives of 18β-glycyrrhetinic acid of the present invention, including 10, 11, 13-17 and 21-25, in treating of cancer, human bladder cancer cell line NTUB1, human prostate cancer cell line PC3 cataloged as CRL-1435 (reference to J. Formosan Med. Assoc. 1992; 91:608-13), and immortalized normal human urothelial cells SV-HUC1 cataloged as CRL-9520 are purchased from American Type Culture Collection (ATCC; Rockville, USA) and maintained in a culturing medium respectively till at a preferable density to carry out a serial of trials (comprising trial A to G) for evaluating cytotoxicities of the derivatives of 18β-glycyrrhetinic acid against cancer cells, and mechanisms thereof.
In the present invention, the NTUB1 and the PC3 is but not limit to be maintained in RPMI 1640 medium supplemented 10% fetal bovine serum (FBS), 100 unit/mL penicillin-G, 100 μg/mL streptomycin, and 2 mM L-glutamine, yet the SV-HUC1 is maintained in F12 medium supplemented with 10% fetal bovine serum (FBS), 100 unit/mL penicillin-G, 100 μg/mL streptomycin, and 2 mM L-glutamine, culturing at 37° C. in a humidified atmosphere containing 5% CO2 till at a density of 70% per well, followed by repeatedly suspending cells in each well with an ethylene diamine tetra-acetic acid buffer (EDTA buffer; Merck) and counting cell numbers.
In the present invention, the IC50 values of each group are presented as mean±standard deviation (SD).

[2] = tested on: NTUB1; assay: Trial (B): MTT cytotoxicity assay, 72 hours; type: cell-based, human; conditions: 0-50 μM
Source text: as §1, with “thereof. […]” for “thereof.”
In trial (B), the cell lines of NTUB1, PC3, and SV-HUC1 are prepared in 96-well plates and co-incubated with the compounds 21, 23 or 25 in various concentrations of 0, 0.3, 1, 3, 5, 10, 30 and 50 μM, to analyze cytotoxic effects against either cancer cell or normal cells via a modified 3-[4,5-dimethylthiazol-2-yl]-2,5-diphenyltetrazolium bromide (MTT, Sigma Chemical Co.) assay. […] At co-incubation, 50 μL of MTT (2 mg/mL in PB) is added to each well to react for 3 hours, followed by centrifugating the 96-well plates at 1000 g for 10 min to remove supernatant, adding 150 μL DMSO in each well of the 96-well plates, and determining viability rates of the NTUB1, PC3, and SV-HUC1 cells separately by an absorbance spectrometry at 540 nm with a MRX (DYNEXCO) microplate reader.

[3] = tested on: p-p53 (Ser15); assay: Trial (G): expression of p53 / p-p53 by Western blot; type: cell-based, human; conditions: 10, 25, 50 μM, 24 hours, NTUB1
Experimental: In trial (G), expression of p53 is monitored via Western blot analysis in accordance with a journal article published by Son et al., at 2010 in Toxicol. Appl. Pharmacol., in which overproduction ROS induced p53 suppression is observed.
Referring to TABLE 7, the NTUB1 cells at a density of 8×10^5 cells/ml are prepared and assigned into 9 groups, including G1-1 to G1-5 and G2-1 to G2-4, to incubate in various medium for 24 hours, followed by harvesting in trypsinization, resuspending in PBS till at a suitable density and collecting the NTUB1 cells of each group respectively.
Next, the NTUB1 cells of each group are further diluted with equal volume of 2× sample buffer, boiled for 10 minutes twice to denature protein therein, and analyzed by SDS-PAGE. After that, proteins on SDS-PAGE datum are transferred to nitrocellulose membranes (Millipore, Billerica, Mass., USA) using a semi-dry blotter, followed by blocking with 5% (w/v) skimmed milk in TBST buffer (100 mM Tris-HCl (pH 7.5), 150 mM NaCl and 0.1% Tween-20), incubating with specific antibodies [including antibodies specific for b-acctin (NB600-501), p-p53 (Ser15) (9284) and p53 (DO1)]. at 4° C. overnight, washing with TBST buffer again and incubated with secondary antibody at room temperature. Finally, western data of each group are visualized on Fuji SuperRX film. […]

C=C(C)[C@@H]1CC[C@]2(C)[C@H](C(=O)C=C3[C@@H]4C[C@@](C)(C(=O)NC(C)C)CC[C@]4(C)CC[C@]32C)[C@@]1(C)CCC(=O)NC(C)C [Compound 25, 3,4-seco-11-oxo-18β-olean-4(23),12-dien-3,30-diisopropyl carbamate]
cytotoxic effect against cancer cell ([1]; with reference to TABLE 2): significantly suppress the growth of cancer cells with a lower concentrate | IC50 ([1]; mean ± SD): 4.76 ± 1.15 µM | cytotoxic effect (survival ratio, FIGS. 4-6) [2]: cytotoxic effects against to the cancer cells in a dose-dependent manner, particularly in against to NTUB1 cell | levels of p-p53 (Western blot, FIGS. 9, 10) [3]: increase levels of p-p53 in a dose-dependent manner
